Test results taken from the supplement of paper PMC10331698.
± gives the standard deviation of the averaged measurements.

What was measured:
Experiment in all cases: level (log10 ratio to DMSO vehicle control); higher = higher biomarker level / cell amount than vehicle control
[1] = compound: FC(F)(I)C(F)(F)C(F)(F)C(F)(F)C(F)(F)C(F)(F)I [1,6-Diiodoperfluorohexane]; details: 6700 nM; in DMSO
Protocol: (§1)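 BioMAP Diversity Plus panel of 12 human primary cell co-culture systems (3C, 4H, LPS, SAg, BT, BF4T, BE3C, CASM3C, HDF3CGF, KF3CT, MyoF, Mphg). Compounds were added 1 h before stimulation and left for 24 h (MyoF 48 h; BT 72 h for soluble read-outs or 6 d for IgG). Biomarkers were read by ELISA, cytotoxicity by SRB, PBMC viability and proliferation by Alamar Blue. Each well value was divided by the mean of 8 DMSO control wells on the same plate and log10 transformed; duplicate blinded samples were tested at 4 concentrations.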

[2] = compound: O=C(Cl)C(F)(F)C(F)(F)C(F)(F)C(=O)Cl [Hexafluoroglutaryl chloride]; details: in DMSO
Protocol: as §1

[3] = compound: Cc1ccc(S(=O)(=O)OCC(F)(F)C(F)(F)C(F)(F)C(F)(F)C(F)(F)C(F)F)cc1 [1H,1H,7H-Perfluoroheptyl 4-methylbenzenesulfonate]; details: in DMSO
Protocol: as §1

[4] = compound: OCCCC(F)(F)C(F)(F)C(F)(F)C(F)(F)C(F)(F)C(F)(F)C(F)(F)C(F)(F)F [3-(Perfluorooctyl)propanol]; details: 6700 nM; in DMSO
Protocol: as §1

[5] = compound: C=CC(=O)OCCC(F)(F)C(F)(F)C(F)(F)C(F)(F)C(F)(F)C(F)(F)C(F)(F)C(F)(F)F [8:2 Fluorotelomer acrylate]; details: in DMSO
Protocol: as §1

Perfluorooctanoic acid = compound: O=C(O)C(F)(F)C(F)(F)C(F)(F)C(F)(F)C(F)(F)C(F)(F)C(F)(F)F [Perfluorooctanoic acid]; details: in DMSO
Protocol: as §1

Methotrexate = compound: CN(Cc1cnc2nc(N)nc(N)c2n1)c1ccc(C(=O)N[C@@H](CCC(=O)O)C(=O)O)cc1 [Methotrexate]; details: in DMSO
Protocol: as §1

Perfluoropinacol = compound: OC(C(F)(F)F)(C(F)(F)F)C(O)(C(F)(F)F)C(F)(F)F [Perfluoropinacol]; details: in DMSO
Protocol: as §1

Row | Test System | level (log10) [1] | level (log10) ([2]; 6700 nM) | level (log10) ([2]; 20000 nM) | level (log10) ([2]; 60000 nM) | level (log10) ([3]; 6700 nM) | level (log10) ([3]; 20000 nM) | level (log10) ([3]; 60000 nM) | level (log10) [4] | level (log10) ([5]; 6700 nM) | level (log10) ([5]; 20000 nM) | level (log10) ([5]; 60000 nM) | level (log10) (Perfluorooctanoic acid; 6700 nM) | level (log10) (Perfluorooctanoic acid; 20000 nM) | level (log10) (Perfluorooctanoic acid; 60000 nM) | level (log10) (Methotrexate; 1500 nM) | level (log10) (Methotrexate; 4400 nM) | level (log10) (Methotrexate; 13000 nM) | level (log10) (Methotrexate; 40000 nM) | level (log10) (Perfluoropinacol; 6700 nM) | level (log10) (Perfluoropinacol; 20000 nM)
1 | HDF3CGF:CXCL8/IL-8 | -0.276 | 0.0025 ± 0.012 | -0.0015 ± 0.005 | 0.013 ± 0.018 | -0.0045 ± 0.011 | 0.0065 ± 0.0035 | 0.0095 ± 0.0021 | -0.0145 ± 0.0092 | -0.01 ± 0.0085 | -0.0105 ± 0.0035 | -0.0095 ± 0.026 | 0.0015 ± 0.0021 | 0.002 ± 0.0014 | 0.015 ± 0.014 | -0.0035 ± 0.011 | -0.0075 ± 0.0064 | 0.0145 ± 0.0035 | 0.004 ± 0.0085 | 0.025 ± 0.0071 | 0.02 ± 0.0028
2 | HDF3CGF:CXCL11/I-TAC | -0.434 | -0.015 ± 0.0057 | -0.0145 ± 0.022 | -0.0085 ± 0.013 | -0.005 ± 0.027 | 0.036 ± 0.057 | -0.001 ± 0.092 | -0.367 ± 0.096 | -0.007 ± 0.0057 | -0.0095 ± 0.0021 | -0.0105 ± 0.028 | -0.0205 ± 0.011 | -0.016 ± 0.027 | -0.007 ± 0.024 | -0.0095 ± 0.013 | -0.0105 ± 0.033 | -0.008 ± 0.023 | -0.018 ± 0.05 | -0.062 ± 0.041 | -0.234 ± 0.015
3 | CASM3C:Serum Amyloid A | -0.008 | -0.022 ± 0.038 | -0.008 ± 0.0042 | -0.002 ± 0.0014 | -0.0445 ± 0.021 | -0.0515 ± 0.0078 | 0.0015 ± 0.06 | -0.005 ± 0.024 | -0.0075 ± 0.013 | -0.0125 ± 0.022 | 0.018 ± 0.028 | -0.002 ± 0.013 | 0.006 ± 0.051 | 0.022 ± 0.038 | -0.0405 ± 0.015 | -0.0145 ± 0.028 | 0.002 ± 0.045 | -0.044 ± 0.068 | 0.0545 ± 0.0078 | 0.0595 ± 0.015
4 | CASM3C:HLA-DR | -0.006 | -0.0095 ± 0.0035 | -0.0025 ± 0.033 | 0.002 ± 0.0057 | -0.009 ± 0.0028 | -0.021 ± 0.0014 | -0.002 ± 0.0071 | -0.0215 ± 0.005 | -0.0145 ± 0.0078 | -0.0045 ± 0.0021 | 0.022 ± 0.013 | 0.0045 ± 0.015 | -0.0045 ± 0.0021 | -0.0045 ± 0.043 | 0.0795 ± 0.0021 | -0.004 ± 0.068 | -0.079 ± 0.013 | 0.0375 ± 0.015 | -0.0885 ± 0.042 | -0.207
5 | KF3CT:CXCL8/IL-8 | -0.071 | -0.0215 ± 0.013 | -0.0275 ± 0.035 | -0.0085 ± 0.0092 | -0.005 ± 0.0028 | -0.103 ± 0.013 | -0.04 ± 0.014 | 0.003 ± 0.0057 | -0.011 ± 0.0014 | -0.047 ± 0.076 | -0.117 ± 0.053 | 0.015 ± 0.0057 | 0.0225 ± 0.0064 | -0.011 ± 0.0099 | 0.002 ± 0.017 | 0 ± 0.021 | -0.0085 ± 0.023 | 0.014 ± 0.011 | -0.018 ± 0.011 | -0.005 ± 0.0042
6 | CASM3C:CCL2/MCP-1 | -0.006 | -0.0055 ± 0.013 | -0.005 ± 0.0014 | 0.011 ± 0.014 | -0.0075 ± 0.0035 | -0.02 ± 0.0057 | 0.011 ± 0.025 | -0.0175 ± 0.016 | -0.0085 ± 0.0021 | -0.012 ± 0.016 | 0.0085 ± 0.032 | 0.007 ± 0.0085 | -0.01 ± 0.03 | 0.0215 ± 0.022 | 0 ± 0.0028 | -0.0125 ± 0.005 | -0.002 ± 0.016 | -0.0195 ± 0.025 | 0.0185 ± 0.013 | 0.096 ± 0.017
7 | 3C:CD142/Tissue Factor | -0.001 | -0.04 ± 0.042 | -0.0435 ± 0.0092 | -0.07 ± 0.092 | 0.0065 ± 0.015 | -0.0025 ± 0.021 | -0.0445 ± 0.036 | -0.054 ± 0.016 | 0.0065 ± 0.029 | 0.0115 ± 0.0035 | 0.0155 ± 0.021 | 0.0395 ± 0.057 | 0.0135 ± 0.071 | 0.049 ± 0.011 | -0.0325 ± 0.042 | -0.0135 ± 0.033 | -0.0175 ± 0.081 | -0.005 ± 0.061 | -0.0805 ± 0.026 | -0.158 ± 0.0035
8 | HDF3CGF:CCL2/MCP-1 | -0.68 | -0.036 ± 0.0099 | -0.0285 ± 0.037 | 0.0095 ± 0.00071 | -0.0645 ± 0.026 | -0.108 ± 0.013 | -0.091 ± 0.0042 | -0.284 ± 0.03 | -0.03 ± 0.017 | -0.042 ± 0.031 | -0.0805 ± 0.044 | -0.0345 ± 0.044 | -0.0305 ± 0.04 | -0.0085 ± 0.057 | -0.0395 ± 0.059 | -0.0325 ± 0.093 | -0.0425 ± 0.071 | -0.0435 ± 0.11 | 0.0595 ± 0.0064 | 0.09 ± 0.0085
9 | CASM3C:CXCL9/MIG | -0.018 | 0.0055 ± 0.043 | -0.002 ± 0.04 | 0.0115 ± 0.1 | -0.0085 ± 0.011 | -0.0195 ± 0.013 | 0.0135 ± 0.0021 | -0.042 ± 0.0028 | 0.026 ± 0.0071 | -0.0055 ± 0.066 | 0.011 ± 0.065 | 0.016 ± 0.0085 | -0.0065 ± 0.04 | 0.042 ± 0.076 | 0.0375 ± 0.021 | 0.0225 ± 0.0092 | 0.0165 ± 0.026 | 0.0615 ± 0.035 | -0.013 ± 0.02 | -0.0335 ± 0.011
10 | MyoF:Collagen III | -0.527 | -0.0115 ± 0.0078 | -0.004 ± 0.035 | -0.003 ± 0.021 | -0.0075 ± 0.00071 | -0.0495 ± 0.022 | -0.056 ± 0.02 | -0.0205 ± 0.00071 | -0.0105 ± 0.0078 | -0.019 ± 0.0085 | -0.03 ± 0.0028 | 0.007 ± 0.0028 | -0.001 ± 0.0071 | -0.039 ± 0.0099 | -0.011 ± 0.04 | -0.001 ± 0.065 | 0.009 ± 0.069 | 0.014 ± 0.041 | -0.0405 ± 0.011 | -0.136 ± 0.0014
11 | HDF3CGF:CD54/ICAM-1 | -0.343 | -0.0015 ± 0.0035 | -0.007 ± 0.0042 | -0.001 ± 0.0099 | 0.0005 ± 0.016 | 0.0385 ± 0.042 | 0.026 ± 0.055 | -0.113 ± 0.15 | 0.034 ± 0.04 | 0.044 ± 0.059 | 0.0395 ± 0.088 | 0.005 ± 0.0057 | 0.0055 ± 0.011 | -0.0035 ± 0.005 | -0.0015 ± 0.00071 | 0.0045 ± 0.005 | 0.0055 ± 0.013 | -0.0065 ± 0.025 | 0.012 ± 0.011 | 0.005 ± 0.018
12 | CASM3C:Proliferation | -0.119 | 0.004 ± 0.0042 | -0.012 ± 0.027 | -0.031 ± 0.03 | -0.009 ± 0.031 | 0.035 ± 0.064 | -0.0075 ± 0.025 | -0.026 ± 0.033 | 0.006 ± 0.021 | -0.05 ± 0.013 | -0.045 ± 0.037 | -0.023 ± 0.051 | -0.0165 ± 0.032 | 0.0105 ± 0.0064 | -0.011 ± 0.096 | 0.0805 ± 0.025 | 0.0585 ± 0.0021 | 0.041 ± 0.014 | -0.02 ± 0.013 | -0.122 ± 0.035
13 | MyoF:TIMP-1 | -0.047 | -0.04 ± 0.057 | -0.024 ± 0.027 | 0.0175 ± 0.04 | -0.0255 ± 0.044 | -0.0575 ± 0.069 | -0.0375 ± 0.07 | -0.0115 ± 0.046 | -0.0615 ± 0.011 | -0.039 ± 0.025 | -0.014 ± 0.0042 | -0.0245 ± 0.005 | 0.0185 ± 0.0078 | 0.089 ± 0.013 | -0.0025 ± 0.0021 | -0.025 ± 0.027 | -0.012 ± 0.033 | -0.0285 ± 0.084 | 0.006 ± 0.016 | -0.021 ± 0.0028
14 | CASM3C:CXCL8/IL-8 | -0.02 | 0.0095 ± 0.021 | 0.006 ± 0.016 | 0.0005 ± 0.052 | -0.0095 ± 0.015 | -0.0055 ± 0.013 | -0.002 ± 0.0099 | -0.008 ± 0.0099 | -0.0185 ± 0.012 | -0.0165 ± 0.00071 | -0.0085 ± 0.00071 | 0.014 ± 0.0085 | 0.009 ± 0.0042 | 0.052 ± 0.014 | 0.0365 ± 0.057 | 0.0255 ± 0.06 | 0.034 ± 0.05 | 0.063 ± 0.061 | 0.004 ± 0.011 | 0.029
